One experiment deals with ischemic brain. In words: Effect of protecting ischemic brain (survival time after ligation of both carotid arteries). Format: in vivo, ICR mice. The settings on record: for Average survival time (min) (average ± S.E.): maximum 6 h, control group 149.9 ± 25.8; for %: survival time relative to control group (100). On the procedure:
Carotid arteries of both sides of ICR mice (6 to 8 weeks old) were exposed under halothane anesthesia and ligated. The mice thus treated had stroke symptoms such as jumping, rolling and convulsion and almost all of them died within 24 h.
The compound of the present invention was administered orally to the mice one hour before the ligation and the survival time (maximum: 6 h) was examined as an index of the effect of protecting eschemic brain. In this experiment, the compound was used in the form of a 5% suspension in acacia and a 5% acacia solution was given to the control group.

In experiment [1] the test system is nerve cells in the CAI region of the hippocampus. Kind of experiment: Effect of protecting cells from disorder after ischemia (nerve cell count in hippocampus). It is filed as in vivo, Mongolian gerbils. The settings on record: counted after one week, normal group 287 ± 6, control group 21 ± 10. On the procedure:
Carotid arteries on both sides of Mongolian gerbils were blocked to realize cerebral ischemia for 5 min. As a result, the nerve cells in the CAI region of the hippocampus disappeared extensively [Karino, T.: Brain Res., 239, 57 to 69 (1982)].
The compound of the present invention was administered orally to them, while a 5% acacia suspension was administered to the control group. After one hour, the ischemia was realized for 5 min. After one week, the animal was perfused and fixed with 4% neutral formalin transcardially. The treated sample was embedded in paraffin and cut to obtain slices having a thickness of 3 µm. The slices were dyed with hematoxylin-eosin and the number of the nerve cells in the CAI region of the hippocampus of each slice was counted.
The nerve cell density in the CAI region of the hippocampus was 287/mm in the normal (pseudo-operation) group and that of the control group was as small as 21/mm. Namely, a serious disappearance of the cell was caused by the 5-min ischemia. […]

[2] abbreviates: 3 mg/kg p.o. one hour before ligation.
Where [3] appears, read: 10 mg/kg p.o. one hour before ligation.
Where [4] appears, read: 30 mg/kg p.o. one hour before ligation.
Setting [5] is: 10 mg/kg p.o. one hour before 5-min ischemia.
Where [6] appears, read: 30 mg/kg p.o. one hour before 5-min ischemia.

SMILES strings stand for the structures. Structures can show the parent of a compound that is named as a salt.

In the case of `O=C(CN1CCC(C(=O)c2ccc(F)cc2)CC1)c1ccc2ccccc2c1` [Example 12, 2-[4-p-Fluorobenzoyl)piperidinyl]-2'-acetonaphthone hydrochloride], the figures for the “Average survival time (min) (average ± S.E.)” value (from here on “Average survival time (min)”) with ischemic brain (setting [2]), in the experiment with ischemic brain (setting [3]) and in the experiment on ischemic brain (setting [4]) were 213.7 ± 52.3 min, 181.4 ± 43.6 min and 191.1 ± 54.3 min, respectively. The figures for the “%” value in the experiment with ischemic brain (3 mg/kg p.o.), in the experiment on ischemic brain (10 mg/kg p.o.) and in the experiment with ischemic brain (30 mg/kg p.o.) were 143%, 121% and 128%, respectively. Also, the “Nerve cell density (number/mm)” value in experiment [1] (3 mg/kg p.o. one hour before 5-min ischemia) is listed as 62 ± 26 number/mm; in experiment [1] (setting [5]) it was 75 ± 32 number/mm; in experiment [1] (setting [6]), 83 ± 32 number/mm.

Turning to `c1ccc(CC2CCN(CCc3ccc4ccccc4c3)CC2)cc1` [Example 73], the results for the “Average survival time (min)” value in the experiment on ischemic brain (setting [3]) and with ischemic brain (setting [4]) were 150.4 ± 57.6 min and 275.2 ± 58.2 min, respectively. Also, the “%” value came out at 100% in the experiment with ischemic brain (10 mg/kg p.o.) and 184% with ischemic brain (30 mg/kg p.o.). Also, the “Nerve cell density (number/mm)” value is 69 ± 21 number/mm in experiment [1] (setting [5]) and 49 ± 8 number/mm in experiment [1] (setting [6]).

Take `O=C(CN1CCC(=Cc2ccc(F)cc2)CC1)c1ccc2ccccc2c1` [Example 74]: the “Average survival time (min)” value was determined as 143.3 ± 39.6 min with ischemic brain (setting [2]), 205.1 ± 43.6 min with ischemic brain (setting [3]) and 194.2 ± 49.7 min with ischemic brain (setting [4]). In addition, the figures for the “%” value in the experiment with ischemic brain (3 mg/kg p.o.), in the experiment with ischemic brain (10 mg/kg p.o.) and with ischemic brain (30 mg/kg p.o.) were 96%, 137% and 130%, respectively. For the same molecule, the “Nerve cell density (number/mm)” value in experiment [1] (setting [6]) was 62 ± 5 number/mm.

The record behind these values is patent publication EP0288563B1, “CYCLIC AMINE DERIVATIVES” (Eisai Co., Ltd., priority 1986, dated 1988).
